Here are results for 64 compounds from PubChem BioAssay AID588611 (Sanford-Burnham Center for Chemical Genomics, 2011).

The structures appear in SMILES notation. Activity calls are given as the source filed them.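 The calls were made as follows: active = mean EC50 below 100 µM; inactive = the rest.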

The term EC50 denotes the midpoint of the concentration-response curve.

The target in this experiment is Intestinal-type alkaline phosphatase (Homo sapiens) (UniProt P09923). The experiment can be described thus: activation of human intestinal alkaline phosphatase – biochemical, luminescence, set 2, selectivity assay for mouse IAP activator project, SAR follow-up (AID 588611). The settings on record: purified human IAP, CDP-Star luminescence, 30 min.
Sequence of Intestinal-type alkaline phosphatase (Homo sapiens) (P09923 whole entry, looked up): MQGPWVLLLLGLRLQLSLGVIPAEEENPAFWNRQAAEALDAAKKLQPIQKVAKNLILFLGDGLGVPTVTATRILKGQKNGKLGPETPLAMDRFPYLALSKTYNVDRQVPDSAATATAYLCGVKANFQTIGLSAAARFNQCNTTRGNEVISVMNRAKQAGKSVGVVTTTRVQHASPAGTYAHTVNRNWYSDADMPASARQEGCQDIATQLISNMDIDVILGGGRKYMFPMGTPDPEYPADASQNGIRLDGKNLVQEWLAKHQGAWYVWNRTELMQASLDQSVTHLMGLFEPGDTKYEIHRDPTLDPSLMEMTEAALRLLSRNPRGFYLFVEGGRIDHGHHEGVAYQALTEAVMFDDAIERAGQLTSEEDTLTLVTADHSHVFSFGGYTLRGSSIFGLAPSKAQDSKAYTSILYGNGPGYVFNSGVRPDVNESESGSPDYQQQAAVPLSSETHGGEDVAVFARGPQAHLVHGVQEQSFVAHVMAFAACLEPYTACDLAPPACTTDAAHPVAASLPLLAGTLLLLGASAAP

For `CN(C)S(=O)(=O)c1cccc(NC(=S)NCCc2cccc(F)c2)c1`, the EC50 is > 100 µM (inactive). For the compound `O=C(CCc1ccccc1)NC(=S)Nc1cccc(S(=O)(=O)N2CCCC2)c1`, the EC50 was > 100 µM (inactive). For `CN(C)S(=O)(=O)c1ccc(NC(=S)NCc2ccc(Cl)cc2)cc1` the value was > 100 µM (inactive). For `CN(C)S(=O)(=O)c1cccc(NC(=S)NCCc2ccc(F)cc2)c1` the value was > 100 µM (inactive). For `O=S(=O)(c1ccc(NC(=S)NCC(c2ccccc2)c2ccccc2)cc1)N1CCCCC1` the value was 72.1 µM; for `O=C(NC(=S)Nc1cc(S(=O)(=O)N2CCOCC2)ccc1O)c1ccco1`, > 100 µM (inactive); for `CN(C)S(=O)(=O)c1cccc(NC(=S)NCCc2cccc(O)c2)c1`, > 100 µM (inactive). For the compound `Cc1ccc(S(=O)(=O)N(C)C)cc1NC(=S)NC1CCN(Cc2ccccc2)CC1`, the EC50 was > 100 µM (inactive). For `O=S(=O)(c1ccc(NC(=S)NC(c2ccccc2)c2ccccc2)cc1)N1CCCC1` the value was 58.2 µM. For `Cc1ccc(S(=O)(=O)N(C)C)cc1NC(=S)NC(C)CCCC(C)C` (centres undefined) the value was 58 µM; for `CN(C)S(=O)(=O)c1cccc(NC(=S)NCCC(c2ccccc2)c2ccccc2)c1`, > 100 µM (inactive); for `CN(C)S(=O)(=O)c1cccc(NC(=S)NCCN2CCCC2)c1`, > 100 µM (inactive). For `CC(CCc1ccccc1)NC(=S)Nc1cccc(S(=O)(=O)N(C)C)c1` (centres undefined) the value was 69.4 µM. Consider `CC1CCN(S(=O)(=O)c2ccc(NC(=S)NC(c3ccccc3)c3ccccc3)cc2)CC1`, for which the EC50 is > 100 µM (inactive).

For `Cc1ccccc1CNC(=S)Nc1ccc(S(=O)(=O)N(C)C)cc1`, the EC50 was > 100 µM (inactive). For `CN(C)S(=O)(=O)c1cccc(NC(=S)NCC(c2ccccc2)c2ccccc2)c1` the value was 39.4 µM; for `O=S(=O)(c1ccc(NC(=S)NCCC(c2ccccc2)c2ccccc2)cc1)N1CCCC1`, 62.2 µM; for `COc1ccc(CNC(=S)Nc2ccc(S(=O)(=O)N3CCCCC3)cc2)cc1OC`, > 100 µM (inactive).

Regarding `CN(C)S(=O)(=O)c1ccc(NC(=S)NCCc2cccc(Br)c2)cc1`, the EC50 was 73.7 µM. For `CN(C)S(=O)(=O)c1cccc(NC(=S)NCc2ccc(Cl)cc2)c1` the value was 75.5 µM; for `COc1ccc(CCNC(=S)Nc2ccc(S(=O)(=O)N3CCCCC3)cc2)cc1OC`, > 100 µM (inactive); for `CCN(CC)S(=O)(=O)c1ccc(NC(=S)NCC(c2ccccc2)c2ccccc2)cc1`, 55.5 µM. For `COc1cccc(CNC(=S)Nc2ccc(S(=O)(=O)N(C)C)cc2)c1` the value was > 100 µM (inactive); for `CN(C)S(=O)(=O)c1cccc(NC(=S)NCCc2ccc(Br)cc2)c1`, 84.5 µM; for `CN(C)S(=O)(=O)c1cccc(NC(=S)NCCCn2ccnc2)c1`, > 100 µM (inactive).

`Cc1ccc(S(=O)(=O)N(C)C)cc1NC(=S)NCCCn1ccnc1`: the EC50 is > 100 µM (inactive). For `CCN(CC)S(=O)(=O)c1ccc(NC(=S)NC(c2ccccc2)c2ccccc2)cc1` the value was 63.7 µM; for `CC(CNC(=S)Nc1cccc(S(=O)(=O)N(C)C)c1)N1CCN(c2ccccc2)CC1` (centres undefined), > 100 µM (inactive). For `CCN(CC)c1ccc(C(=O)NC(=S)Nc2cc(S(=O)(=O)N3CCOCC3)ccc2-n2cncn2)cc1` the value was > 100 µM (inactive); for `CN(C)S(=O)(=O)c1cccc(NC(=S)NCCC(=O)N2CCCC2)c1`, > 100 µM (inactive). As for `CN(C)S(=O)(=O)c1cccc(NC(=S)NCCCN2CCCC2=O)c1`, the EC50 was > 100 µM (inactive).

As to `CC1CC(NC(=S)Nc2cccc(S(=O)(=O)N(C)C)c2)CC(C)N1` (centres undefined), the EC50 was > 100 µM (inactive).

In the case of `CN(C)S(=O)(=O)c1cccc(NC(=S)NC(C)(C)CC(C)(C)C)c1`, the EC50 was 70.7 µM. For `COc1ccc(CCNC(=S)Nc2ccc(S(=O)(=O)N3CCCCC3)cc2)cc1` the value was 77.2 µM; for `CC1CCN(S(=O)(=O)c2ccc(NC(=S)NCC(c3ccccc3)c3ccccc3)cc2)CC1`, > 100 µM (inactive); for `COc1ccccc1CNC(=S)Nc1ccc(S(=O)(=O)N(C)C)cc1`, > 100 µM (inactive).

On to `O=C(NC(=S)Nc1cc(S(=O)(=O)N2CCOCC2)ccc1N1CCOCC1)c1ccco1`, for which the EC50 was > 100 µM (inactive).

Turning to `Cc1ccc(CNC(=S)Nc2cccc(S(=O)(=O)N(C)C)c2)cc1`, the EC50 is > 100 µM (inactive). For `CC1CCN(S(=O)(=O)c2ccc(NC(=S)NCCC(c3ccccc3)c3ccccc3)cc2)CC1` the value was 53.1 µM; for `CN(C)S(=O)(=O)c1cccc(NC(=S)NCCc2ccccc2)c1`, > 100 µM (inactive); for `CN(C)CCCNC(=S)Nc1cccc(S(=O)(=O)N(C)C)c1`, > 100 µM (inactive).

For `CN(C)S(=O)(=O)c1cccc(NC(=S)NC(c2ccccc2)c2ccccc2)c1`, the half-maximal effective concentration (EC50) is 34 µM. For `CN(C)S(=O)(=O)c1ccc(NC(=S)NCCN2CCCC2)cc1` the value was > 100 µM (inactive). `O=c1c2ccccc2[nH]c(=S)n1-c1cccc(S(=O)(=O)N2CCCC2)c1`: the EC50 was > 100 µM (inactive). `CCN(CC)CCCNC(=S)Nc1cccc(S(=O)(=O)N(C)C)c1`: the EC50 was > 100 µM (inactive). For `Cc1ccc(C)c(NC(=S)Nc2ccc(S(=O)(=O)N3CCCCC3)cc2)c1` the value was > 100 µM (inactive). For `CN(C)S(=O)(=O)c1ccc(NC(=S)NCCc2cccc(O)c2)cc1` the value was > 100 µM (inactive); for `Cc1ccc(CNC(=S)Nc2ccc(S(=O)(=O)N(C)C)cc2)cc1`, 89.6 µM; for `Cc1ccc(S(=O)(=O)N(C)C)cc1NC(=S)NC(C)CCC(C)C` (centres undefined), 66.6 µM.

Regarding `COc1cccc(CCNC(=S)Nc2cccc(S(=O)(=O)N(C)C)c2)c1`, the EC50 is 82 µM. For `CN(CCc1ccccc1)C(=S)Nc1cccc(S(=O)(=O)N(C)C)c1` the value was > 100 µM (inactive).

With `CN(C)S(=O)(=O)c1ccc(NC(=S)NC(c2ccccc2)c2ccccc2)cc1`, the EC50 is 62.4 µM.

In the case of `CN(CCc1ccccn1)C(=S)Nc1cccc(S(=O)(=O)N(C)C)c1`, the EC50 was > 100 µM (inactive). As for `CN(C)CC(C)(C)CNC(=S)Nc1cccc(S(=O)(=O)N(C)C)c1`, the EC50 was > 100 µM (inactive). For `O=S(=O)(c1ccc(NC(=S)NCC(c2ccccc2)c2ccccc2)cc1)N1CCCC1` the value was 58.5 µM; for `O=S(=O)(c1ccc(NC(=S)NCCC(c2ccccc2)c2ccccc2)cc1)N1CCCCC1`, 53 µM; for `O=S(=O)(c1ccc(NC(=S)NC(c2ccccc2)c2ccccc2)cc1)N1CCCCC1`, 68.7 µM.

In the case of `CN(C)S(=O)(=O)c1ccc(NC(=S)NCCC(c2ccccc2)c2ccccc2)cc1`, the EC50 was 57.2 µM. Regarding `CCOc1cc(CCNC(=S)Nc2ccc(S(=O)(=O)N(C)C)cc2)ccc1OC`, the EC50 is > 100 µM (inactive). For `CN(C)S(=O)(=O)c1ccc(NC(=S)NCCc2ccccc2)cc1` the value was > 100 µM (inactive); for `Cc1ccc(S(=O)(=O)N(C)C)cc1NC(=S)NC(=O)C12CC3CC(CC(C3)C1)C2`, > 100 µM (inactive); for `O=S(=O)(c1ccc(NC(=S)NCc2cccc(F)c2)cc1)N1CCCCC1`, 76.8 µM.

Regarding `CCN(CC)S(=O)(=O)c1ccc(NC(=S)NCCC(c2ccccc2)c2ccccc2)cc1`, the EC50 was 41.3 µM. For `CN(C)S(=O)(=O)c1cccc(NC(=S)NCCc2cccc(Br)c2)c1` the value was 65 µM.
